# According to patent US7008633B2 (priority 2000, dated 2006):
# Counter-ions that a name gives are not always drawn. Numbered stars: 1 amine (or outer) side, 2 acyl side, 3 side chain; on linkers, the order of the positions; unused ones are H or OH. Bridge positions count the residues as written; N and C are the ends. Square brackets hold non-standard residues; d marks the D form. Peptide text beside a SMILES is read from it. I, II: the chains in the order shown. Actinocin(9to1) = Cc1c2oc3c(C)ccc(C(=O)[*:1])c3nc-2c(C(=O)[*:2])c(N)c1=O; NMeV = CN[C@H](C(=O)O)C(C)C; Sar = CNCC(=O)O
# Tests used:
# [1] = in vivo, cited from earlier work
# [2] = in vivo; cited from earlier work
# multiple myeloma = conditions: oral administration; cited from earlier work
# [3] = In vitro slow release of cisplatin from alginate beads; format: physicochemical; conditions: incubated in PBS at 37° C.
# Protocol: To study in vitro slow release of an anticancer drug from a polymer, the anticancer drug cisplatin and the polymer sodium alginate were tested for slow release of the drug. Cisplatin-loaded alginate beads (SA-CDDP) were formed instantly and then incubated in phosphate-buffered saline (PBS) in tubes at 37° C. Cisplatin was completely released from the alginate beads in 15 hours, which is considerably slower than the release time (within 2.5 hours) of cisplatin powder only (control) (FIG. 1).
# [4] = Blood chemical assay (BUN, serum creatinine) to detect renal toxicity; format: in vivo, rat; conditions: for BUN / SERUM CREATININE: intratumoral 3 MG/KD, breast tumor-bearing rats
# Protocol: The SA-CDDP (0.1 ml; cisplatin dose was 3 mg/kg body weight) was injected directly into the tumors through 27 G needles. In a preferred embodiment, about […] SA is used per injection. Calcium chloride (8% in water) was then injected into the same place to form cisplatin-loaded alginate beads in the tumors. The tumor size was measured to determine the anticancer effect, and the blood chemical assay (blood urea nitrogen [BUN] and serum creatinine) were performed to detect renal toxicity.
# On day 40, BUN in five experimental rats and five healthy rats (control) were 18.30±1.51 mg/dl and 17.88±2.24 mg/dl, respectively. There was no statistical significance (p>0.05) between the two. Serum creatinine levels were the same as in both experimental and control rats (0.6 mg/dl).
smiles,measurement,setting,value
CC[C@]1(O)C[C@@H]2CN(CCc3c([nH]c4ccccc34)[C@@](C(=O)OC)(c3cc4c(cc3OC)N(C)[C@H]3[C@@](O)(C(=O)OC)[C@H](OC(C)=O)[C@]5(CC)C=CCN6CC[C@]43[C@@H]65)C2)C1 [Vinblastine],share of the dose excreted or detected intact in the urine,[1],Approximately 15%
CO[C@@]12[C@H](COC(N)=O)C3=C(C(=O)C(C)=C(N)C3=O)N1C[C@@H]1N[C@@H]12 [Mitomycin],share of a dose excreted unchanged in the urine,[2],Approximately 10%
"N[C@@H](Cc1ccc(N(CCCl)CCCl)cc1)C(=O)O [Melphalan, 4-[bis(2-chloroethyl)amino]-L-phenylalanine]",share of patients with a favorable response,multiple myeloma,about one third to one half
"Cc1c2oc3c(C)ccc(C(=O)N[C@@H]4C(=O)N[C@H](C(C)C)C(=O)N5CCC[C@H]5C(=O)N(C)CC(=O)N(C)[C@@H](C(C)C)C(=O)O[C@@H]4C)c3nc-2c(C(=O)N[C@@H]2C(=O)N[C@H](C(C)C)C(=O)N3CCC[C@H]3C(=O)N(C)CC(=O)N(C)[C@@H](C(C)C)C(=O)O[C@@H]2C)c(N)c1=O [Actinomycin D] (I: T[dV]P[Sar][NMeV] / II: T[dV]P[Sar][NMeV]; ester I:1-I:C, II:1-II:C; linker I:N-II:N via Actinocin(9to1))",share of the dose excreted intact into the bile,[1],Half of the dose
same,share of the dose excreted or detected intact in the urine,[1],10%
"[NH2][Pt]([NH2])([Cl])[Cl] [CDDP, cisplatin]",oral absorption,[1]; po,not absorbed orally
same,time to complete release of cisplatin,[3],≤ 2.5 h
same,nephrotoxicity,[4]; CDDP intratumorally,a clear nephrotoxicity was observed
same,BUN,[4]; day 2,56.21 mg/dL
same,SERUM CREATININE,[4]; day 2,1.5 mg/dL
same,BUN,[4]; day 5,246.42 mg/dL
same,SERUM CREATININE,[4]; day 5,7.03 mg/dL
same,BUN,[4]; day 7,152.35 mg/dL
same,SERUM CREATININE,[4]; day 7,2.4 mg/dL
same,BUN,[4]; day 16,41.75 mg/dL
same,SERUM CREATININE,[4]; day 16,0.7 mg/dL
"COc1cccc2c1C(=O)c1c(O)c3c(c(O)c1C2=O)C[C@@](O)(C(C)=O)C[C@@H]3O[C@H]1C[C@H](N)[C@H](O)[C@H](C)O1 [Daunorubicin, 5,12-Naphthacenedione, (8S-cis)-8-acetyl-10-[(3-amino-2,3,6-trideoxy-a-L-lyxo-hexanopyranosyl)oxy]-7,8,9,10-tetrahydro-6,8,11-trihydroxy-10-methoxy-, hydrochloride]",oral absorption,[1]; po,Oral absorption is poor
"O=NN(CCCl)C(=O)NC1CCCCC1 [Lomustine, 1-(2-chloro-ethyl)-3-cyclohexyl-1 nitrosourea]",radioactivity excreted in the form of degradation products,[1]; po,about half
